We go through six molecules from ChEMBL document CHEMBL5674860, “Optimized Dual-Glo Assay to identify co-culture-induced drug vulnerabilities in 3D CRC models” (2024).

Values joined by “and” are separate entries in the source; they are usually repeats but may differ in a detail not shown here. Identical values can stand only once.

Common to all, as to assay type: functional, Homo sapiens
Set-up in all cases: dose or concentration left out as unconfirmed

Experiment [1] deals with Colon cancer organoid. In words: Optimized Dual-Glo assay to identify co-culture induced drug vulnerabilities using donated chemical probes and chemogenomics kinase set in O06 CRC organoid and F06 CAF mono and co-culture. […] Cell viability is reported both mono and co-culture models.
Experiment [2] has as its system Colon cancer organoid. In words: Optimized Dual-Glo assay to identify co-culture induced drug vulnerabilities using donated chemical probes and chemogenomics kinase set in O20 CRC organoid and F20 CAF mono and co-culture. […] Cell viability is reported both mono and co-culture models.
For experiment [3], the system named is Colon cancer organoid. Briefly: Optimized Dual-Glo assay to identify co-culture induced drug vulnerabilities using donated chemical probes and chemogenomics kinase set in O14 CRC organoid and F14 CAF mono and co-culture. […] Cell viability is reported both mono and co-culture models.
[4] abbreviates: Culture type Co-Culture, Transduced with Lucferase2-P2A-EGFP lentivirus.
Where [5] appears, read: Culture type Co-Culture, Transduced with Renilla-dsRed lentivirus.
The mark [6] stands for this setting: Culture type Mono-Culture, Transduced with Lucferase2-P2A-EGFP lentivirus.
Where [7] appears, read: Culture type Mono-Culture, Transduced with Renilla-dsRed lentivirus.

`Cc1sc2c(c1C)C(c1ccc(Cl)cc1)=N[C@H](CC(=O)OC(C)(C)C)c1nnc(C)n1-2`: the “Cell Viability” value is given as 107.283% in the experiment on Colon cancer organoid [1] (setting [4]); 109.974% with Colon cancer organoid [1] (setting [5]); 69.4816% with Colon cancer organoid [1] (setting [6]); 97.8447% in the experiment on Colon cancer organoid [1] (setting [7]); 98.7176% with Colon cancer organoid [2] (setting [4]); 113.657% in the experiment with Colon cancer organoid [2] (setting [5]). Also, the “Cell Viability” value came to 118.396% in the experiment on Colon cancer organoid [2] (setting [6]); 90.6965% with Colon cancer organoid [2] (setting [7]); 111.301% in the experiment on Colon cancer organoid [3] (setting [4]); 136.501% in the experiment on Colon cancer organoid [3] (setting [5]); 108.464% in the experiment on Colon cancer organoid [3] (setting [6]); 107.072% with Colon cancer organoid [3] (setting [7]).
`COc1ccc(CCc2nc3cc(-c4c(C)noc4C)ccc3n2C[C@H](C)N2CCOCC2)cc1Cl`: the “Cell Viability” value with Colon cancer organoid [1] (setting [4]) amounted to 78.634%; in the experiment with Colon cancer organoid [1] (setting [5]), 97.126%; in the experiment on Colon cancer organoid [1] (setting [6]), 66.152%; in the experiment with Colon cancer organoid [1] (setting [7]), 156.889%; in the experiment on Colon cancer organoid [2] (setting [4]), 95.7417%; in the experiment on Colon cancer organoid [2] (setting [5]) it was 133.846%. Moreover, the “Cell Viability” value in the experiment with Colon cancer organoid [2] (setting [6]) is recorded as 83.4803%; with Colon cancer organoid [2] (setting [7]), 106.755%; in the experiment on Colon cancer organoid [3] (setting [4]), 90.4848%; in the experiment with Colon cancer organoid [3] (setting [5]), 144.282%; in the experiment with Colon cancer organoid [3] (setting [6]) it was 124.855%; in the experiment with Colon cancer organoid [3] (setting [7]), 138.359%.
In the case of `COc1cc(C#N)ccc1S(=O)(=O)Nc1ccc2c(c1)cc(C)c(=O)n2C`, the “Cell Viability” value in the experiment with Colon cancer organoid [1] (setting [4]) worked out at 94.9001%; in the experiment with Colon cancer organoid [1] (setting [5]), 111.598%; in the experiment with Colon cancer organoid [1] (setting [6]), 60.6858%; with Colon cancer organoid [1] (setting [7]), 105.903%; in the experiment with Colon cancer organoid [2] (setting [4]), 96.6614%; in the experiment on Colon cancer organoid [2] (setting [5]), 124.149%. Moreover, the “Cell Viability” value was found to be 82.6901% in the experiment on Colon cancer organoid [2] (setting [6]); 95.7551% in the experiment on Colon cancer organoid [2] (setting [7]); 68.1001% in the experiment with Colon cancer organoid [3] (setting [4]); 108.689% with Colon cancer organoid [3] (setting [5]); 83.6696% in the experiment with Colon cancer organoid [3] (setting [6]); 112.833% in the experiment on Colon cancer organoid [3] (setting [7]).
For the molecule `CCCS(=O)(=O)c1nc(NC2CC2)cc(-c2ccc3c(ccn3C3CC(C)(C)NC(C)(C)C3)c2)n1`, the “Cell Viability” value was 80.022% and 93.4216% in the experiment on Colon cancer organoid [1] (setting [4]); 88.9327% and 142.491% in the experiment on Colon cancer organoid [1] (setting [5]); 57.3495% and 53.1993% with Colon cancer organoid [1] (setting [6]); 66.0436% and 80.8259% in the experiment on Colon cancer organoid [1] (setting [7]); 90.8821% and 132.572% in the experiment on Colon cancer organoid [2] (setting [4]); 94.2313% and 119.463% in the experiment on Colon cancer organoid [2] (setting [5]). The “Cell Viability” value with Colon cancer organoid [2] (setting [6]) was 112.848% and 138.911%; in the experiment with Colon cancer organoid [2] (setting [7]) it was 68.5534% and 89.7285%; in the experiment on Colon cancer organoid [3] (setting [4]), 89.4811% and 97.6343%; in the experiment on Colon cancer organoid [3] (setting [5]), 131.118% and 106.572%; in the experiment with Colon cancer organoid [3] (setting [6]), 78.7545% and 88.3769%; in the experiment on Colon cancer organoid [3] (setting [7]), 100.347% and 100.989%.
For the molecule `CCCCNNC(=O)c1ccc(Br)cc1`, the “Cell Viability” value in the experiment with Colon cancer organoid [1] (setting [4]) was found to be 113.204%; in the experiment with Colon cancer organoid [1] (setting [5]), 110.004%; in the experiment on Colon cancer organoid [1] (setting [6]), 101.234%; in the experiment on Colon cancer organoid [1] (setting [7]), 117.719%; in the experiment on Colon cancer organoid [2] (setting [4]) it was 131.228%; with Colon cancer organoid [2] (setting [5]) it was 114.511%. Further, the “Cell Viability” value was 127.902% in the experiment with Colon cancer organoid [2] (setting [6]); 88.6471% in the experiment on Colon cancer organoid [2] (setting [7]); 82.2147% in the experiment with Colon cancer organoid [3] (setting [4]); 109.67% with Colon cancer organoid [3] (setting [5]); 123.977% with Colon cancer organoid [3] (setting [6]); 94.4376% with Colon cancer organoid [3] (setting [7]).
Turning to `COc1cc(Nc2ccnc3ccc(Br)cc23)cc(OC)c1OC`, the “Cell Viability” value in the experiment with Colon cancer organoid [1] (setting [4]) is on record as 12.1878%; in the experiment with Colon cancer organoid [1] (setting [5]) it was 144.697%; in the experiment with Colon cancer organoid [1] (setting [6]) it was 4.043%; in the experiment on Colon cancer organoid [1] (setting [7]), 101.861%; in the experiment with Colon cancer organoid [2] (setting [4]) it was 3.207%; in the experiment on Colon cancer organoid [2] (setting [5]) it was 235.19%. Further, the “Cell Viability” value is 3.534% with Colon cancer organoid [2] (setting [6]); 97.9085% with Colon cancer organoid [2] (setting [7]); 114.11% in the experiment with Colon cancer organoid [3] (setting [4]); 94.8334% in the experiment with Colon cancer organoid [3] (setting [5]); 91.9496% in the experiment with Colon cancer organoid [3] (setting [6]); 94.0266% in the experiment on Colon cancer organoid [3] (setting [7]).
